The values below come from patent US20060252807A1, “Novel ortho-terphenyl inhibitors of p38 kinase and methods of treating inflammatory disorders” (Kalypsys, Inc., priority 2005, published 2006).

SMILES strings stand for the structures.

In the first assay the target is T1, active p38 alpha enzyme (Upstate Biotechnology) (Homo sapiens, UniProt Q16539).
T1 construct: purchased Upstate Biotechnology
T1 sequence (Q16539 whole entry): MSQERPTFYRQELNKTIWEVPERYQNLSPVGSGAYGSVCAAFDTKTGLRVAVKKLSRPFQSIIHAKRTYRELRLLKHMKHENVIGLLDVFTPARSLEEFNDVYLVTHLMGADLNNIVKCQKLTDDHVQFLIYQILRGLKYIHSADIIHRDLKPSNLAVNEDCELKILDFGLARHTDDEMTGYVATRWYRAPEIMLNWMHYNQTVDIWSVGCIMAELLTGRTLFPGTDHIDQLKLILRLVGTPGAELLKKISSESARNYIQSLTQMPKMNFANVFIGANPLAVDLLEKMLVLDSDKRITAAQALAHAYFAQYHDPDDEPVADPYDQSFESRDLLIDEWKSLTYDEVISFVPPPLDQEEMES
Nature of the assay: p38α biochemical assay (ATP turnover, luminescent detection, Cambrex PKlight). Conditions: p38α biochemical assay, Table 1 Biological Activity. Here is the method: The p38α biochemical assay employed is based on measurement of total ATP turnover following enzyme incubation with substrate in the presence of ATP with the use of a luminescent detection reagent (Cambrex PKlight). The assays were performed in 1536-well white opaque plates.
The final volume was 7.5005 μL as prepared prepared from the addition of 5 ul of kinase reaction (p38 alpah+MapkapK2+ATP) with 0.0005 μL compound dissolved in DMSO, and 2.5 ul of the detection reagent. Assay buffer contains the following reagents to give final concentration in the assay: 200 mM Tris, 100 mM MgCl2, 1.5 mM EGTA, 4 mM CaCl2, 20 mM MOPS, 1 mM EDTA, 1% glycerol, 0.1% B-Mecaptoethanol, and 1 mg/ml BSA. Test compounds are pinned using proprietary pintool technology (Kalypsys, Inc) and delivered as […] amounts into the 5 ul mixture of active p38 alpha enzyme (Upstate Biotechnology) and MapkapK2 (Upstate Biotechnology) whole protein as a substrate for phosphorylation in the presence of 1.4 uM final concentration ATP. Reactions are incubated at 30C for 2 hours and detection reagent is added in 2.5 ul/well amounts. Assay is read using a Perkin Elmer Viewlux.
In the case of `CC(C)NC(=O)c1csc(-c2[nH]c(N)nc2-c2ccc(F)cc2)n1` [Example 96, 2-|2-Amino-5-(4-fluoro-phenyl)-3H-imidazol-4-yl|-thiazole-4-carboxylic acid isopropylamide], the 50% inhibitory concentration (IC50) (usually the midpoint of a concentration-inhibition curve) was at most 1 µM.
Same read-out and setting: the value for `CC(C)NC(=O)c1csc(-c2c(-c3ccc(F)cc3)noc2CNC(=O)C2CN(C(=O)OC(C)(C)C)CCN2)n1` (centres unmarked) [Example 790] was over 1 µM; that for `CC(C)NC(=O)c1csc(-c2oc(CNC(=O)c3cccc(Br)n3)nc2-c2ccc(F)cc2)n1` [Example 276] was over 1 µM; that for `CC(C)NC(=O)c1csc(-c2c(-c3ccc(F)cc3)ncn2C)n1` [Example 86, 2-|5-(4-Fluoro-phenyl)-3-methyl-3H-imidazol-4-yl|-thiazole-4-carboxylic acid isopropylamide] was at most 1 µM.
On the same count and under the same terms, the value for `Cc1cc(C(=O)NCc2nc(-c3ccc(F)cc3)c(-c3nc(C(=O)NC(C)C)cs3)o2)cc(Cl)n1` [Example 192] was over 1 µM.
Same read-out and setting: the figure for `Cc1ccc([N+](=O)[O-])c(C(=O)NCc2onc(-c3ccc(F)cc3)c2-c2nc(C(=O)NC(C)C)cs2)c1` [Example 697] is at most 1 µM; for `Cc1cccc(CCC(=O)NCc2nc(-c3ccc(F)cc3)c(-c3nc(C(=O)NC(C)C)cs3)o2)c1` [Example 173] it is over 1 µM.
With `CC(C)NC(=O)c1csc(-c2oc(CNC(=O)c3cscn3)nc2-c2ccc(F)cc2)n1` [Example 119], the IC50 is at most 1 µM.
`CC(C)NC(=O)c1csc(-c2oc(CN3CCN(C(=O)C(O)CCl)CC3)nc2-c2ccc(F)cc2)n1` (centres unmarked) [Example 352] came in with a 50% inhibitory concentration (IC50) of over 1 µM.
Molecule `CC(C)NC(=O)c1csc(-c2oc(CN3CCN(C(=O)c4cscn4)CC3)nc2-c2ccc(F)cc2)n1` [Example 356] gave a half-maximal inhibitory concentration (IC50) of at most 1 µM.
`Cc1cccc(C(=O)N2CCN(Cc3nc(-c4ccc(F)cc4)c(-c4nc(C(=O)NC(C)C)cs4)o3)CC2)c1C` [Example 373] returned an IC50 of over 1 µM.
Still for that read-out and setting: the figure for `CCc1ccc(C(=O)N2CCN(Cc3nc(-c4ccc(F)cc4)c(-c4nc(C(=O)NC(C)C)cs4)o3)CC2)cc1` [Example 377] is over 1 µM.
Still for that read-out and setting: the figure for `CCOc1ccc2ccccc2c1C(=O)NCc1onc(-c2ccc(F)cc2)c1-c1nc(C(=O)NC(C)C)cs1` [Example 772] is over 1 µM.
For `CC(C)NC(=O)c1csc(-c2oc(CNC(=O)CC#N)nc2-c2ccc(F)cc2)n1` [Example 100], the IC50 was at most 1 µM.
Molecule `CC(C)NC(=O)c1csc(-c2c(-c3ccc(F)cc3)noc2CNC(=O)c2c(O)ccc3ccccc23)n1` [Example 718] displayed a concentration for half-maximal inhibition (IC50) of over 1 µM.
The same measure, in the same setting: the value for `COC(=O)c1ccc(C(=O)NCc2onc(-c3ccc(F)cc3)c2-c2nc(C(=O)NC(C)C)cs2)cc1` [Example 689] was over 1 µM.
Still for that read-out and setting: the value for `CC(C)NC(=O)c1csc(-c2oc(CNC(=O)c3cc(Cl)c(O)c(Cl)c3)nc2-c2ccc(F)cc2)n1` [Example 281] was at most 1 µM; that for `CC(=O)c1ccccc1C(=O)NCc1onc(-c2ccc(F)cc2)c1-c1nc(C(=O)NC(C)C)cs1` [Example 645] was over 1 µM; that for `CC(C)NC(=O)c1csc(-c2c(-c3ccc(F)cc3)noc2CNC(=O)c2ccc3cccc(O)c3n2)n1` [Example 721] was over 1 µM.
Consider `Cc1cccc(C(=O)NCc2onc(-c3ccc(F)cc3)c2-c2nc(C(=O)NC(C)C)cs2)c1C` [Example 611], for which the half-inhibitory concentration (IC50) is over 1 µM.

The assay is the same for the next values; noted with them: p38α kinase; Table 1 Biological Activity.
Turning to `C[C@@H](NC(=O)c1csc(-c2c(-c3ccc(F)cc3)n[nH]c2C2CCNCC2)n1)c1ccccc1` [Example 2075], the half-inhibitory concentration (IC50) was over 1 µM.
Consider `CC(C)NC(=O)c1csc(-c2c(-c3ccc(F)cc3)noc2CNC(=O)c2ccccc2C(=O)c2ccc(O)cc2)n1` [Example 797], for which the IC50 was over 1 µM.
The molecule `CC(C)NC(=O)c1csc(-c2c(-c3ccc(F)cc3)noc2CN2CCCC(CO)C2)n1` (centres unmarked) [Example 1536] displayed an IC50 of over 1 µM.
Same read-out and setting: the figure for `COc1ccc(CCN(C)Cc2onc(-c3ccc(F)cc3)c2-c2nc(C(=O)NC(C)C)cs2)cc1OC` [Example 1598] is over 1 µM; for `CC(C)NC(=O)c1csc(-c2c(-c3ccc(F)cc3)noc2CNCCN(C(C)C)C(C)C)n1` [Example 1469] it is over 1 µM; for `Cc1nc(-c2ccc(F)cc2)c(-c2nc(C(=O)NCc3ccc(N(C)C)cc3)cs2)s1` [Example 1824] it is at most 1 µM.
The same measure, in the same setting: the figure for `CC(C)NC(=O)c1csc(-c2oc(CNCCN(C(C)C)C(C)C)nc2-c2ccc(F)cc2)n1` [Example 1138] is over 1 µM; for `CC(C)NC(=O)c1csc(-c2c(-c3ccc(F)cc3)noc2CN2CCCC(c3ccc(C(F)(F)F)cc3)C2)n1` (centres unmarked) [Example 1629] it is over 1 µM; for `CC(C)NC(=O)c1csc(-c2c(-c3ccc(F)cc3)noc2CN2CCN(CCc3ccccc3)CC2)n1` [Example 1591] it is over 1 µM.
Same read-out and setting: the figure for `O=C(NCCC(c1ccccc1)c1ccccc1)c1csc(-c2c(-c3ccc(F)cc3)n[nH]c2C2CCNCC2)n1` [Example 2156] is over 1 µM.
`CC(C)NC(=O)c1csc(-c2oc(CNC3CCCc4ccccc43)nc2-c2ccc(F)cc2)n1` (centres unmarked) [Example 1139] had an IC50 of over 1 µM.
As for `Cc1nc(-c2ccc(F)cc2)c(-c2nc(C(=O)NCCCO)cs2)s1` [Example 1718], the IC50 is at most 1 µM.
Still for that read-out and setting: the figure for `Cc1nc(-c2ccc(F)cc2)c(-c2nc(C(=O)NCc3ccco3)cs2)s1` [Example 1731] is at most 1 µM; for `CC(C)NC(=O)c1csc(-c2c(-c3ccc(F)cc3)noc2CN2CCCCC2C)n1` (centres unmarked) [Example 1522] it is over 1 µM.
Still for that read-out and setting: the figure for `CC(C)NC(=O)c1csc(-c2oc(CNCCc3cccc(Cl)c3)nc2-c2ccc(F)cc2)n1` [Example 1151] is over 1 µM; for `CC(C)NC(=O)c1csc(-c2c(-c3ccc(F)cc3)noc2CNCc2ccccc2F)n1` [Example 1436] it is over 1 µM.
On the same count and under the same terms, the value for `Cc1nc(-c2ccc(F)cc2)c(-c2nc(C(=O)N(CCC#N)Cc3ccccc3)cs2)s1` [Example 1704] was over 1 µM.
With `Cc1nc(-c2ccc(F)cc2)c(-c2nc(C(=O)NCc3cccc(F)c3)cs2)s1` [Example 1758], the IC50 was at most 1 µM.
Same read-out and setting: the value for `CC(C)NC(=O)c1csc(-c2c(-c3ccc(F)cc3)noc2CN2CCSC2)n1` [Example 1521] was over 1 µM; that for `CC(C)NC(=O)c1csc(-c2oc(CNCc3ccc(F)cc3)nc2-c2ccc(F)cc2)n1` [Example 1104] was over 1 µM; that for `CCC(C)CNCc1onc(-c2ccc(F)cc2)c1-c1nc(C(=O)NC(C)C)cs1` (centres unmarked) [Example 1399] was over 1 µM.
Still for that read-out and setting: the figure for `CC(C)NC(=O)c1csc(-c2c(-c3ccc(F)cc3)noc2CN(CCO)Cc2ccccc2)n1` [Example 1559] is over 1 µM.
Still for that read-out and setting: the value for `CC(C)NC(=O)c1csc(-c2c(-c3ccc(F)cc3)n[nH]c2C2CCN(C(=O)[C@H](C)O)CC2)n1` [Example 2165, 2-{3-(4-Fluoro-phenyl)-5-|1-(2-hydroxy-propionyl)-piperidin-4-yl|-1H-pyrazol-4-yl}-thiazole-4-carboxylic acid isopropylamide] was at most 1 µM; that for `Cc1ccc(C(=O)N2CCC(c3[nH]nc(-c4ccc(F)cc4)c3-c3nc(C(=O)NC(C)C)cs3)CC2)cc1Br` [Example 1007] was over 1 µM; that for `Cc1nc(-c2ccc(F)cc2)c(-c2nc(C(=O)NC3CCC3)cs2)s1` [Example 1714] was at most 1 µM.
`Cc1ccccc1CNCc1onc(-c2ccc(F)cc2)c1-c1nc(C(=O)NC(C)C)cs1` [Example 1431]: the concentration for half-maximal inhibition (IC50) is over 1 µM.
Consider `COc1ccc(C(=O)CNC(=O)c2csc(-c3c(-c4ccc(F)cc4)n[nH]c3C3CCNCC3)n2)cc1` [Example 2154], for which the IC50 was over 1 µM.
On the same count and under the same terms, the figure for `Cc1nc(-c2ccc(F)cc2)c(-c2nc(C(=O)NC3CCN(Cc4ccccc4)CC3)cs2)s1` [Example 1826] is over 1 µM; for `CC(C)NC(=O)c1csc(-c2c(-c3ccc(F)cc3)noc2CNC(C)CCc2ccccc2)n1` (centres unmarked) [Example 1470] it is over 1 µM; for `Cc1ccc(C(=O)CCC(=O)N2CCC(c3[nH]nc(-c4ccc(F)cc4)c3-c3nc(C(=O)NC(C)C)cs3)CC2)cc1` [Example 970] it is over 1 µM.
Same read-out and setting: the figure for `Cc1ccc(C)c(NCc2onc(-c3ccc(F)cc3)c2-c2nc(C(=O)NC(C)C)cs2)c1` [Example 1640] is over 1 µM; for `COc1cccc(CNCc2onc(-c3ccc(F)cc3)c2-c2nc(C(=O)NCC(C)C)cs2)c1` [Example 1457] it is over 1 µM; for `Cc1ccnc(NCc2onc(-c3ccc(F)cc3)c2-c2nc(C(=O)NC(C)C)cs2)c1` [Example 1636] it is over 1 µM.
Same read-out and setting: the value for `COc1ccc(C(=O)N2CCC(c3[nH]nc(-c4ccc(F)cc4)c3-c3nc(C(=O)NC(C)C)cs3)CC2)c(OC)c1OC` [Example 1000] was over 1 µM.
The molecule `CC(C)NC(=O)c1csc(-c2oc(CNCCCn3ccnc3)nc2-c2ccc(F)cc2)n1` [Example 1106] gave a half-maximal inhibitory concentration (IC50) of over 1 µM.
The same measure, in the same setting: the figure for `Cc1cnc(CNCc2onc(-c3ccc(F)cc3)c2-c2nc(C(=O)NC(C)C)cs2)cn1` [Example 1433] is over 1 µM.
As to `CC(C)NC(=O)c1csc(-c2c(-c3ccc(F)cc3)n[nH]c2C2CCN(C(=O)COc3ccccc3C=O)CC2)n1` [Example 926], the IC50 is over 1 µM.
`Cc1nc(-c2ccc(F)cc2)c(-c2nc(C(=O)N3CCc4ccccc4C3)cs2)s1` [Example 1874]: the concentration for half-maximal inhibition (IC50) is over 1 µM.
On the same count and under the same terms, the figure for `CC(C)NC(=O)c1csc(-c2c(-c3ccc(F)cc3)noc2CNc2ccccc2COc2ccccc2)n1` [Example 1694] is over 1 µM.
